Here are results for 1 compound from patent publication US20050038022A1, “Method for treatment of cancer and compositions for use therein” (Unisearch Limited, priority 2001, published 2005).

One series in a line: Solubility in solvent. It counts as physicochemical. The source says: (§1) In order to be able to test ABS, a proper solvent had to be found. […] Therefore to allow direct comparison between the 2 compounds, all subsequent experiments were run using 0.5% DMSO for both ABS and albendazole. In the cell lines examined, albendazole produced very similar results to what we had previously reported for the drug in liver cancer cells.

The conditions of series [1]: sulphoxide metabolite after oral albendazole, man; cited from earlier work.
The test system of series [2] is liver, colorectal, prostate and leukeamic cell lines. Kind of series: Albendazole/ABS side by side in various cell lines (general). It counts as cell-based. As for the experimental part:
as §1
(§2) Both albendazole and ABS were tested side by side against various cell lines as follows: • Liver—HepGZ Hep3B, SKHEP-1 • Colorectal—170, LOVO, HT-29 • Prostate—PC3, LNCap, Du145 • Leukeamic—HL60
The fist 9 cell lines were used to compare effectiveness and potency while, the last one was used to assess toxicity on bone marrow (as a rough guide).
(§3) Cells were treated with various concentrations of each compound for a period of 5 days.

Series [3] has as its system HepG2, SKHEP-1 and Hep 3B. Kind of series: Albendazole/ABS proliferation test, liver cancer cells. It counts as cell-based, human. To be noted: 5 days, 0.5% DMSO. The protocol: as §1, §2, §3
A further series concerns C-170, LOVO and HT-29. Kind of series: Albendazole/ABS proliferation test, colorectal cell lines. It counts as cell-based. To be noted: C-170, LOVO and HT-29, 5 days, 0.5% DMSO. As for the experimental part:
as §1, §2, §3

The subject of the next series is PC3, LNCap and Du 145. The series can be described thus: Albendazole/ABS proliferation test, prostate cancer cells. It counts as cell-based, human. To be noted: PC3, LNCap and Du 145; ABS compared with albendazole. The protocol: as §1, §2, §3

As to `CCC[S+]([O-])c1ccc2[nH]c(NC(=O)OC)nc2c1` (stereo not shown) [ABS, albendazole sulphoxide], the solubility in ethanol entry in “Solubility in solvent” was “not soluble in ethanol”. Moreover, in series [1], the peak plasma concentrations is 200 to 300 ng/mL and the plasma half life was 8 to 9 h. Moreover, the “antiproliferative activity at 0.25 micromoles/L” value in series [2] (0.25 micromoles/L, 5 days) is given as “dramatically increasing”. The “effectiveness compared with parent drug” value in series [2] (10 different cell lines, earlier results, latest results cast doubt) is listed as “as effective as the parent drug”. For the same compound, the inhibition at 1 µM in series [2] (120 h, 1 micromoles/L, 5 days) was around 100%. For the same compound, the “concentration at which antiproliferative activity becomes evident” value in series [2] (5 days, 0.5% DMSO, in general) is 0.01 µmol/L. In series [3], the “proliferation of human liver cancer cells” value is “inhibit proliferation”. In the series with C-170, LOVO and HT-29, the “activity against colorectal cell lines” value is “same sort of activity”. The “potency in inhibiting proliferation, metabolite versus drug” value in the series with PC3, LNCap and Du 145 was “almost equipotent”.
